Measured values reported in patent US20230091225A1, “Bifunctional chimeric heterocyclic compounds for targeted degradation of androgen receptors and use thereof” (HINOVA PHARMACEUTICALS INC., priority 2019, published 2023).
Read-outs that look alike come from different tables or passages of the source.

Biological target: T1, androgen receptor (AR) (Homo sapiens, UniProt P10275)
T1 sequence (P10275 1-920): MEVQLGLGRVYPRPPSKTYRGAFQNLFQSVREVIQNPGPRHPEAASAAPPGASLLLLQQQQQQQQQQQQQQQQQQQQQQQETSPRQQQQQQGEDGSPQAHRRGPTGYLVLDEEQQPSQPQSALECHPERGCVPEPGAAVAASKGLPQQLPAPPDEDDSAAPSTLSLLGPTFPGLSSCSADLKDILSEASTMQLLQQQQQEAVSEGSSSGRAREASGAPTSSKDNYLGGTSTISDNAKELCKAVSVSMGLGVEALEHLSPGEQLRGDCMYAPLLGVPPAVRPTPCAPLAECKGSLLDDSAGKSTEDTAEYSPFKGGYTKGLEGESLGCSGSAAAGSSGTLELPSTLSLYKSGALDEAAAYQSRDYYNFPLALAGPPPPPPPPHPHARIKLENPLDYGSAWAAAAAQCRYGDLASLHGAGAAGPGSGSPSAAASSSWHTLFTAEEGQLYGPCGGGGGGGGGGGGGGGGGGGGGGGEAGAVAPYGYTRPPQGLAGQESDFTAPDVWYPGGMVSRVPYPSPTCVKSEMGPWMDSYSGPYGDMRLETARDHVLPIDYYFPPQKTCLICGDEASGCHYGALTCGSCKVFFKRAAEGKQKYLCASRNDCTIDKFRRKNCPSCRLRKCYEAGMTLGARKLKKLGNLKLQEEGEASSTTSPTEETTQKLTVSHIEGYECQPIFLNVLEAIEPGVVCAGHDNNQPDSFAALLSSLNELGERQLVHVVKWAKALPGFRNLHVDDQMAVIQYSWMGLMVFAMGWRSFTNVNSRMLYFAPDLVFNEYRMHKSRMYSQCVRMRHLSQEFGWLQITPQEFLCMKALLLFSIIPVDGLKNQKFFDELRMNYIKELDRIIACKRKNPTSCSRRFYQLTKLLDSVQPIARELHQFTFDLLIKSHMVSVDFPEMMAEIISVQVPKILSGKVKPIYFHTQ
Experiment: Degradation of androgen receptor (AR) protein in VCaP cells by ELISA
Type: cell-based
Conditions: for Dmax: VCaP

[1] = AR degradation, VCaP cells, 16 h, ELISA, Table 3-1, read-out: DC50
[2] = AR degradation, VCaP cells, 16 h, ELISA, Table 3-1, read-out: Dmax (%)

Compound	DC50 [1] [nM]	Dmax [2] [%]	further results
N#Cc1ccc(O[C@H]2CC[C@H](NC(=O)c3ccc(N4CCC(N5CC6(CCN(c7cc8c(cc7F)C(=O)N(C7CCC(=O)NC7=O)C8=O)CC6)C5)CC4)nn3)CC2)cc1C(F)(F)F (some centres unmarked) [Compound 79, N-((1r,4r)-4-(4-cyano-3-(trifluoromethyl)phenoxy)cyclohexyl)-6-(4-(7-(2-(2,6-dioxopiperidin-3-yl)-6-fluoro-1,3-dioxoisoindolin-5-yl)-2,7-diazaspiro[3.5]nonan-2-yl)piperidin-1-yl)pyridazine-3-formamide]	10 to 100	> 80	
CC1(C)[C@H](Oc2ccc(C#N)c(Cl)c2)C(C)(C)[C@H]1N1Cc2nc(N3CCC(CN4CCN(c5cc6c(cc5F)C(=O)N(C5CCC(=O)NC5=O)C6=O)CC4)CC3)cnc2C1=O (some centres unmarked) [Compound 384]	< 10	60 to 80	
N#Cc1ccc(O[C@H]2CC[C@H](NC(=O)c3cnc(N4CC5(CCN(CC6CCN(c7ccc8c(c7)C(=O)N(C7CCC(=O)NC7=O)C8=O)CC6)CC5)C4)cn3)CC2)cc1Cl (some centres unmarked) [Compound 283, N-((1r,4r)-4-(3-chloro-4-cyanophenoxy)cyclohexyl)-6-(7-((1-(2-(2,6-dioxopiperidin-3-yl)-1,3-dioxoisoindolin-5-yl)piperidine-4-yl)methyl)-2,7-diazaspiro[3.5]nonan-2-yl)pyrazine-3-formamide]	< 10	> 80	
[2H]C([2H])([2H])Oc1cc(O[C@H]2CC[C@H](NC(=O)c3ccc(N4CCC(CN5CCC6(CC5)CN(c5ccc7c(c5)C(=O)N(C5CCC(=O)NC5=O)C7=O)C6)CC4)nn3)CC2)ccc1C#N (some centres unmarked) [Compound 153]			DC50: < 10 nM; Dmax: > 80%
N#Cc1ccc(O[C@H]2CC[C@H](NC(=O)c3ccc(N4CCC(CN5CCC6(CC5)CN(c5cc7c(cc5F)C(=O)N(C5CCC(=O)NC5=O)C7=O)C6)CC4)nn3)CC2)cc1 (some centres unmarked) [Compound 132, N-((1r,4r)-4-(4-cyanophenoxy)cyclohexyl)-6-(4-((2-(2-(2,6-dioxapiperidin-3-yl)-6-fluoro-1,3-dioxoisoindolin-5-yl)-2,7-diazaspiro[3.5]nonan-7-yl)methyl)piperidin-1-yl)pyridazine-3-carboxamide]	10 to 100		Dmax: 60 to 80%
CC1(C)[C@H](Oc2ccc(C#N)c(Cl)c2)C(C)(C)[C@H]1N1Cc2nc(C#C[C@H]3C[C@H](N4CCN(c5ccc6c(c5)C(=O)N(C5CCC(=O)NC5=O)C6=O)CC4)C3)cnc2C1=O (some centres unmarked) [Compound 390]			DC50 (AR degradation, VCaP cells, 16 h, ELISA, Table 3-2, read-out: DC50): < 10 nM; Dmax (AR degradation, VCaP cells, 16 h, ELISA, Table 3-2, read-out: Dmax (%)): 60 to 80%
CC(=O)O[C@@H]1CC(C(=O)N[C@@H](C)c2ccc(-c3scnc3C)cc2)N(C(=O)[C@@H](NC(=O)COCCN2CCN(c3ccc4c(c3)CN([C@H]3C(C)(C)[C@H](Oc5ccc(C#N)c(Cl)c5)C3(C)C)C4=O)CC2)C(C)(C)C)C1 (stereo partly drawn) [Compound 2, (3R,5S)-1-((S)-2-(2-(2-(4-(2-((1R,3R)-3-(3-chloro-4-cyanophenoxy)-2,2,4,4-tetramethylcyclobutyl)-1-oxoisoindolin-5-yl)piperazin-1-yl)ethoxy)acetylamino)-3,3-dimethylbutyryl)-5-(((S)-1-(4-(4-methylthiazol-5-yl)phenyl)ethyl)carbamoyl) pyrrolidin-3-yl acetate]			inhibition at 0.1 µM (percentage of degraded AR at 100 nM, VCaP cells, 16 h, ELISA, read-out: % degradation): < 25%
N#Cc1ccc(OC2CCC(NC(=O)c3cnc(N4CCN(CC5[C@H]6CN(c7cc8c(cc7F)C(=O)N(C7CCC(=O)NC7=O)C8=O)C[C@@H]56)CC4)nc3)CC2)cc1Cl (some centres unmarked) [Compound 128]			Dmax (%): +++ (key: ++++: >80%; +++: 80%-60%; ++: 60%-40%; +: <40%); DC50 (read-out: DC50): 10 to 100 nM
CC1(C)C(NC(=O)c2ccc(N3CCC(N4CC5(CCN(c6cc7c(cc6F)C(=O)N(C6CCC(=O)NC6=O)C7=O)CC5)C4)CC3)nn2)C(C)(C)C1Oc1ccc(C#N)c(Cl)c1 (centres unmarked) [Compound 80, N-((1s,3s)-3-(3-chloro-4-cyanophenoxy)-2,2,4,4-tetramethylcyclobutyl)-6-(4-(7-(2-(2,6-dioxopiperidin-3-yl)-6-fluoro-1,3-dioxoisoindolin-5-yl)-2,7-diazaspiro [3.5]nonan-2-yl)piperidin-1-yl)pyridazine-3-formamide]			Dmax (%): +++ (key: ++++: >80%; +++: 80%-60%; ++: 60%-40%; +: <40%); DC50 (read-out: DC50): 10 to 100 nM
CC1(C)[C@H](Oc2ccc(C#N)c(Cl)c2)C(C)(C)[C@H]1N1Cc2nc(C#CC3CC(N4CC5CN(c6ccc7c(c6)C(=O)N(C6CCC(=O)NC6=O)C7=O)CC5C4)C3)ccc2C1=O (some centres unmarked) [Compound 358, 2-chloro-4-((1r,3r)-3-(2-((3-(5-(2-(2,6-dioxopiperidin-3-yl)-1,3-dioxoisoindolin-5-yl)hexahydropyrrolo[3,4-c]pyrrol-2(1H)-yl)cyclobutyl)ethynyl)-5-oxo-5,7-dihydro-6H-pyrrolo[3,4-b]pyridin-6-yl)-2,2,4,4-tetramethylcyclobutoxy)benzonitrile]	10 to 100	60 to 80	
C[C@H]1CN(c2ccc(C(=O)N[C@H]3CC[C@H](Oc4ccc(C#N)c(Cl)c4)CC3)nn2)CCN1C[C@H]1[C@@H]2CN(c3cc4c(cc3F)C(=O)N(C3CCC(=O)NC3=O)C4=O)C[C@@H]21 (some centres unmarked) [Compound 168]	< 10	> 80	
CC1(C)[C@H](Oc2ccc(C#N)c(Cl)c2)C(C)(C)[C@H]1N1Cc2nc(C#CC3CCC(N4CC5(CCN(c6ccc7c(c6)C(=O)N(C6CCC(=O)NC6=O)C7=O)CC5)C4)CC3)ccc2C1=O (some centres unmarked) [Compound 377, 2-Chloro-4-((1r,3r)-3-(2-((4-(7-(2-(2,6-dioxopiperidin-3-yl)-1,3-dioxoisoindolin-5-yl)-2,7-diazaspiro[3.5]nonan-2-yl)cyclohexyl)ethynyl)-5-oxo-5,7-dihydro-pyrrolo[3,4-b]pyridin-6-yl)-2,2,4,4-tetramethylcyclobutoxy) benzonitrile]	< 10		Dmax (%) (AR degradation, VCaP cells, 16 h, ELISA, Table 3-1): ++++ (>80%)
N#Cc1ccc(O[C@H]2CC[C@H](NC(=O)c3cnc(N4CC5(CCN(C6CCN(c7cc8c(cc7F)C(=O)N(C7CCC(=O)NC7=O)C8=O)CC6)CC5)C4)nc3)CC2)cc1Cl (some centres unmarked) [Compound 273, N-((1r,4r)-4-(3-chloro-4-cyanophenoxy)cyclohexyl)-2-(7-(1-(2-(2,6-dioxopiperidin-3-yl)-6-fluoro-1,3-dioxoisoindolin-5-yl)piperidine-4-yl)-2,7-diazaspiro[3.5]nonan-2-yl)pyrimidine-5-carboxamide]	10 to 100		Dmax: 60 to 80%
N#Cc1ccc(O[C@H]2CC[C@H](NC(=O)c3nnc(N4CCC(CN5CCC6(CC5)CN(c5ccc7c(c5)C(=O)N(C5CCC(=O)NC5=O)C7=O)C6)CC4)s3)CC2)cc1Cl (some centres unmarked) [Compound 243]			DC50: < 10 nM; Dmax: > 80%
N#Cc1ccc(O[C@H]2CC[C@H](NC(=O)c3ncnn3[C@H]3CC[C@H](CN4CCC5(CC4)CN(c4ccc6c(c4)C(=O)N(C4CCC(=O)NC4=O)C6=O)C5)CC3)CC2)cc1Cl (stereo partly drawn) [Compound 86, N-((1r,4R)-4-(3-chloro-4-cyanophenoxy)cyclohexyl)-1-((1r,4R)-4-((2-(2-(2,6-dioxopiperidin-3-yl)-1,3-dioxoisoindolin-5-yl)-2,7-diazaspiro[3.5]nonan-7-yl)methyl)cyclohexyl)-1H-1,2,4-triazole-5-formamide]	100 to 300	60 to 80	
N#Cc1ccc(O[C@H]2CC[C@H](NC(=O)c3ccc(N4CC5(CN(CC6CCN(c7cc8c(cc7F)C(=O)N(C7CCC(=O)NC7=O)C8=O)CC6)C5)C4)nn3)CC2)cc1Cl (some centres unmarked) [Compound 124]	< 10	> 80	
CC1(C)[C@H](Oc2ccc(C#N)c(Cl)c2)C(C)(C)[C@H]1N1Cc2nc(C#CC3CCC(N4CC5CC4CN5c4ccc5c(c4)C(=O)N(C4CCC(=O)NC4=O)C5=O)CC3)ccc2C1=O (single isomer, unassigned) [Compound 352, 2-Chloro-4-((1r,3r)-3-(2-((4-(5-(2-(2,6-dioxopiperidin-3-yl)-1,3-dioxoisoindolin-5-yl)-2,5-diazabicyclo[2.2.1]heptan-2-yl)cyclohexyl)ethynyl)-5-oxo-5,7-dihydro-6H-pyrrolo[3,4-b]pyridin-6-yl)-2,2,4,4-tetramethylcyclobutoxy) benzonitrile]	> 300	40 to 60	
N#Cc1ccc(O[C@H]2CC[C@H](NC(=O)c3ccc(N4CCN(C[C@@H]5[C@H]6CN(c7cc8c(cc7F)C(=O)N(C7CCC(=O)NC7=O)C8=O)C[C@@H]56)CC4)cn3)CC2)cc1Cl (some centres unmarked) [Compound 286]	10 to 100	60 to 80	
